Key:
Experiment in all cases: Standardized radiometric kinase assays, percentage of activity at 0.5 μM;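 further: Read-out is ³³P-labelled substrate protein phosphorylated by each kinase, captured on filters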
[1] = target: each individual kinase of the panel (Homo sapiens, UniProt P42684)
[2] = target: each individual kinase of the panel (Homo sapiens, UniProt Q15759)
[3] = target: each individual kinase of the panel (Homo sapiens, UniProt P41743)
[4] = target: each individual kinase of the panel (Homo sapiens, UniProt P14616)
[5] = target: each individual kinase of the panel (Mus musculus, UniProt P63085)
[6] = target: each individual kinase of the panel (Homo sapiens, UniProt Q15139)
[7] = target: each individual kinase of the panel (Homo sapiens, UniProt Q9P286)
[8] = target: each individual kinase of the panel (Homo sapiens, UniProt Q16620)
[9] = target: each individual kinase of the panel (Homo sapiens, UniProt P51817)
[10] = target: each individual kinase of the panel (Homo sapiens, UniProt Q16644)
[11] = target: each individual kinase of the panel (Homo sapiens, UniProt Q96RG2)
[12] = target: each individual kinase of the panel (Homo sapiens, UniProt Q96BR1)
[13] = target: each individual kinase of the panel (Homo sapiens, UniProt Q9Y6E0)
[14] = target: each individual kinase of the panel (Homo sapiens, UniProt Q86Z02)
[15] = target: each individual kinase of the panel (Homo sapiens, UniProt Q9UBE8)
[16] = target: each individual kinase of the panel (Homo sapiens, UniProt P05129)
[17] = target: each individual kinase of the panel (Homo sapiens, UniProt P49761)
[18] = target: each individual kinase of the panel (Homo sapiens, UniProt P43250)
[19] = target: each individual kinase of the panel (Homo sapiens, UniProt P53778)
[20] = target: each individual kinase of the panel (Homo sapiens, UniProt Q14289)
[21] = target: each individual kinase of the panel (Homo sapiens, UniProt Q5VT25)
[22] = target: each individual kinase of the panel (Homo sapiens, UniProt P52564)
[23] = target: each individual kinase of the panel (Homo sapiens, UniProt P22607)
[24] = target: each individual kinase of the panel (Homo sapiens, UniProt P31751)
[25] = target: each individual kinase of the panel (Homo sapiens, UniProt P10721, D816V)
[26] = target: each individual kinase of the panel (Homo sapiens, UniProt Q05655)
[27] = target: each individual kinase of the panel (Homo sapiens, UniProt O94806)
[28] = target: each individual kinase of the panel (Homo sapiens, UniProt Q8NG66)
[29] = target: each individual kinase of the panel (Homo sapiens, UniProt Q9NQU5)
[30] = target: each individual kinase of the panel (Homo sapiens, UniProt Q08881)
[31] = target: each individual kinase of the panel (Homo sapiens, UniProt Q9HC98)

Sequence of each individual kinase of the panel (Homo sapiens, UniProt P14616) (P14616 27-742 limits assumed): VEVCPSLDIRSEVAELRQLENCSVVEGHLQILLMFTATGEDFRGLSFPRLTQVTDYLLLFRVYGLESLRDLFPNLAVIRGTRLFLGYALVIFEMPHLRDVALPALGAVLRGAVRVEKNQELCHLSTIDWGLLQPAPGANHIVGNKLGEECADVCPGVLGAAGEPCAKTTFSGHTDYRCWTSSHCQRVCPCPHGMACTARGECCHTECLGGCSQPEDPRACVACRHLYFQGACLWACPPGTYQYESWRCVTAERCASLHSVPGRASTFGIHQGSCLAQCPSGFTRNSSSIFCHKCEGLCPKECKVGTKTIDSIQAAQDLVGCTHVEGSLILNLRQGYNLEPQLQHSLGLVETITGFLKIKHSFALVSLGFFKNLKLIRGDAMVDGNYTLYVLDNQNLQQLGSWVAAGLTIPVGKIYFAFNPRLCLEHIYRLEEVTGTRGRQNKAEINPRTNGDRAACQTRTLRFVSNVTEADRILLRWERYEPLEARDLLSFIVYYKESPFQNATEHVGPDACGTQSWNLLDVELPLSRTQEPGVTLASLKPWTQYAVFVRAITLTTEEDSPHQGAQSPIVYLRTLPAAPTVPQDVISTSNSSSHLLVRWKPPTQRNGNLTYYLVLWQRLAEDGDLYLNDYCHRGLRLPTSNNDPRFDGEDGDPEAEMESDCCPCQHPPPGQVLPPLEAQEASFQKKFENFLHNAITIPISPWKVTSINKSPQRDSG
Sequence of each individual kinase of the panel (Homo sapiens, UniProt P14616) (P14616 747-1297 limits assumed): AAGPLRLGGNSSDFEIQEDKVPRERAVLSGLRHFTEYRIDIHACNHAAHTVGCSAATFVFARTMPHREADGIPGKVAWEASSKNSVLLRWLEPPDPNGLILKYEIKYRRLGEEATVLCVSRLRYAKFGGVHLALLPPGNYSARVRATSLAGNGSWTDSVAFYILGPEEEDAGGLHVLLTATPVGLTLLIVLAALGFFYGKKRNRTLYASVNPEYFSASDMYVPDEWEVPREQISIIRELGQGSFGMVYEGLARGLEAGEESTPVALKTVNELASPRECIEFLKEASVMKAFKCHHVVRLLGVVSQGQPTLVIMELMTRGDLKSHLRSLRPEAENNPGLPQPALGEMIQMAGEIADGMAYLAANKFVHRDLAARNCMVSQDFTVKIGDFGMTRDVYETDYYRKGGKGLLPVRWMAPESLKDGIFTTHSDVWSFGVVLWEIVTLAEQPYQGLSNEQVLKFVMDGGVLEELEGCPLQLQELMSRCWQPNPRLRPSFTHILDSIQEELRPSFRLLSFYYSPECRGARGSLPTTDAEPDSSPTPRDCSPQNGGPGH
Sequence of each individual kinase of the panel (Homo sapiens, UniProt Q16620) (Q16620 32-822 limits assumed): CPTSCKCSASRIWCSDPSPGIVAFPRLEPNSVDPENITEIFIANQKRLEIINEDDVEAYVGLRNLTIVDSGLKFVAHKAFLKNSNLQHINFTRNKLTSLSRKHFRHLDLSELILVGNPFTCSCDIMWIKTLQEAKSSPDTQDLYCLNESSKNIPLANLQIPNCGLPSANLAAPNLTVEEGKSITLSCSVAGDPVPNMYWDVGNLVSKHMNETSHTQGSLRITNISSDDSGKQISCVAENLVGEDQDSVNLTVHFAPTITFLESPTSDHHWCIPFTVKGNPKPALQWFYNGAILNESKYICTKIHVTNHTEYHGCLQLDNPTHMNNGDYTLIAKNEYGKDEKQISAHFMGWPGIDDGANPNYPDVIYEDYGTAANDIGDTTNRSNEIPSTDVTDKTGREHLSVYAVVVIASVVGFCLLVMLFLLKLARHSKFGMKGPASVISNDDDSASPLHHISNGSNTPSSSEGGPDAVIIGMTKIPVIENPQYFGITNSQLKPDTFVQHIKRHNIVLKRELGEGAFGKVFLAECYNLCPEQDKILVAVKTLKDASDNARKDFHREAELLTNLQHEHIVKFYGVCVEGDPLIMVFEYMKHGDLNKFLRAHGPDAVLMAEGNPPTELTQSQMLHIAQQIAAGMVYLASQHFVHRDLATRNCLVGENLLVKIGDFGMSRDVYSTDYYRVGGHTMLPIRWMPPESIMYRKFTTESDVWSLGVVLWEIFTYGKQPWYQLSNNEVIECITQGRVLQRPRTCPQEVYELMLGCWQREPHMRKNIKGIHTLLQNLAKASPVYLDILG
Sequence of each individual kinase of the panel (Homo sapiens, UniProt P42684) (P42684 2-1182 limits assumed): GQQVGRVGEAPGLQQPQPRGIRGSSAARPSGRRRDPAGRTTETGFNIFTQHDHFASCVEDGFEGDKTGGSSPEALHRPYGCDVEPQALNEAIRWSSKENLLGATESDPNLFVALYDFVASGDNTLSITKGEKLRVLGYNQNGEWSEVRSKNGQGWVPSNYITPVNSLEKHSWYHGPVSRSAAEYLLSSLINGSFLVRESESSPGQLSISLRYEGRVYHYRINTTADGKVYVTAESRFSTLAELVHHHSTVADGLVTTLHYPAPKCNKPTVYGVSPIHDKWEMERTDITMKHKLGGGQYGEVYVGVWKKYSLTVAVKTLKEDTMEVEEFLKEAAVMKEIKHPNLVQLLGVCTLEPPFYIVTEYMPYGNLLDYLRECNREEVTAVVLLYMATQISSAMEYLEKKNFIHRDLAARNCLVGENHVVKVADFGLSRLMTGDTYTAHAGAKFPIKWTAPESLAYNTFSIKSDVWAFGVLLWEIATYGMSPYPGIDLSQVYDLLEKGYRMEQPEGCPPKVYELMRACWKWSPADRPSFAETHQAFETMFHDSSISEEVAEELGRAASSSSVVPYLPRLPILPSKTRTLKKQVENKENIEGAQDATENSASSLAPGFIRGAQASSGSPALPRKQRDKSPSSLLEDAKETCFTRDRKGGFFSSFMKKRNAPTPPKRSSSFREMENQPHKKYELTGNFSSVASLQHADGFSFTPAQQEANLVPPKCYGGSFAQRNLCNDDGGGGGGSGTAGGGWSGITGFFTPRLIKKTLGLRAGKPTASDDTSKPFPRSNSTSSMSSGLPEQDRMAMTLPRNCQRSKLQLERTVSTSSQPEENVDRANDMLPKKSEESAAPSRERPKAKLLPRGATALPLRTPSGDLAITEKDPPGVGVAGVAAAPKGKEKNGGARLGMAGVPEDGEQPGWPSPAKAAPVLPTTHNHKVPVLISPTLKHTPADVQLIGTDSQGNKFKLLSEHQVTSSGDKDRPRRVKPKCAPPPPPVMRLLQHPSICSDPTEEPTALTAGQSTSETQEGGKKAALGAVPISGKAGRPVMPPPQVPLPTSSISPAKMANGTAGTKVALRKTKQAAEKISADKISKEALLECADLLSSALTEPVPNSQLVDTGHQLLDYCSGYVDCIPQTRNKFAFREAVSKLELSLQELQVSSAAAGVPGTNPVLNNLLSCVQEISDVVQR
Sequence of each individual kinase of the panel (Homo sapiens, UniProt P41743) (P41743 2-596 limits assumed): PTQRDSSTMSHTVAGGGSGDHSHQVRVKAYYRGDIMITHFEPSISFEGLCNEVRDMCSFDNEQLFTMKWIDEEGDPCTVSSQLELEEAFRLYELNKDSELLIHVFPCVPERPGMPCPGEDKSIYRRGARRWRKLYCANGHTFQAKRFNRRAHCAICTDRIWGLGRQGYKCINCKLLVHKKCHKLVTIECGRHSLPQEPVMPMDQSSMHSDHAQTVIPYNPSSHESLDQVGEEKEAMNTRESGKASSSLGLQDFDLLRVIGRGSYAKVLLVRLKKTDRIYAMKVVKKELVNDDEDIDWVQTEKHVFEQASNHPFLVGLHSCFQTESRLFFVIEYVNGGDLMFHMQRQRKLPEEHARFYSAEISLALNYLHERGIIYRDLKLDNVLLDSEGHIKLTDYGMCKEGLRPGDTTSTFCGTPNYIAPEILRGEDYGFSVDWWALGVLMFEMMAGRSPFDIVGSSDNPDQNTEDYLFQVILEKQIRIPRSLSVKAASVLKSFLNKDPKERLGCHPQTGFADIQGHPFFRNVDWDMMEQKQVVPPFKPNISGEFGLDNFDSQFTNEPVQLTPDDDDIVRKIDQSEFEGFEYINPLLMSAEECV
Sequence of each individual kinase of the panel (Mus musculus, UniProt P63085) (P63085 2-358 limits assumed): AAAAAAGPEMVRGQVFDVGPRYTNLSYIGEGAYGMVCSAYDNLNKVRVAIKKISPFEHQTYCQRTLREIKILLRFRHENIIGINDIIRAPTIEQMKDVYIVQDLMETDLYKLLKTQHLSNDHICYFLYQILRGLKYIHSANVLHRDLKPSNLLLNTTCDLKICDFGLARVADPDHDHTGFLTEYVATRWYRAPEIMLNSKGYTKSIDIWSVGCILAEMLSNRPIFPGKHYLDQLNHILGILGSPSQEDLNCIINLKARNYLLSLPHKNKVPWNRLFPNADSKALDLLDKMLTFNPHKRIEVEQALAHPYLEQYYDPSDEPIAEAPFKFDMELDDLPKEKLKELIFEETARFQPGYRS
Sequence of each individual kinase of the panel (Homo sapiens, UniProt P22607) (P22607 23-806 limits assumed): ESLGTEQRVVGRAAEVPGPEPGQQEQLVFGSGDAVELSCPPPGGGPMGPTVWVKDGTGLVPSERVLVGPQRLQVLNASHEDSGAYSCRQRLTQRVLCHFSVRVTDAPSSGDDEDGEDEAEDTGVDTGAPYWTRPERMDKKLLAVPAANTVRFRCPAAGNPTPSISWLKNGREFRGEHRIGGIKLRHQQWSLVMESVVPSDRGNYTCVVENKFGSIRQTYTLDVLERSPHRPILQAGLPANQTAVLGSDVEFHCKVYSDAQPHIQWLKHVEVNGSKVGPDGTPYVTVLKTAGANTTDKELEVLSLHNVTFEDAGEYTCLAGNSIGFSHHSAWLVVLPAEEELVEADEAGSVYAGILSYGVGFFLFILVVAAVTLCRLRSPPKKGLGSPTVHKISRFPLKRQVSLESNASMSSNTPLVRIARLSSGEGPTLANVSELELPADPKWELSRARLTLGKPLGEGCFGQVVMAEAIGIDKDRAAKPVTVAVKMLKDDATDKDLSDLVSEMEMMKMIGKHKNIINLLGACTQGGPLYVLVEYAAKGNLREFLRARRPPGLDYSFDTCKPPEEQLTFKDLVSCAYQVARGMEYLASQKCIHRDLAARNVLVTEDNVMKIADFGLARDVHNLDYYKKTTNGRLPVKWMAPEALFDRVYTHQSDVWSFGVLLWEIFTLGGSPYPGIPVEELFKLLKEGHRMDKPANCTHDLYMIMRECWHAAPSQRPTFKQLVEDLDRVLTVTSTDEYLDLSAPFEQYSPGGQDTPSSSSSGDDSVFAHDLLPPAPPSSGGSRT

Q: `C#Cc1cccc(Nc2nc3cc(C(=O)O)ccc3c3cncnc23)c1` [drawing 1135] was tested. Which “ABL2 percentage of activity” value [1] did it give?
A: Its value is 2%.

Q: And the “p38-beta percentage of activity” value [2]?
A: The value was 5%.

Q: What about the “PRKCI percentage of activity” value [3] of the same compound?
A: The value was −5%.

Q: And the “INSRR percentage of activity” value [4]?
A: The value was −21%.

Q: And the “MAPK2(m) percentage of activity” value [5]?
A: The value was −6%.

Q: What about the “PRKCM percentage of activity” value [6] of the same compound?
A: The value was −4%.

Q: And the “PAK5 percentage of activity” value [7]?
A: The value was −8%.

Q: And the “TRKB percentage of activity” value [8]?
A: The value was 10%.

Q: What about the “PRKX percentage of activity” value [9] of the same compound?
A: Its value is 3%.

Q: And the “MAPKAPK3 percentage of activity” value [10]?
A: The value was −8%.

Q: And the “PASK percentage of activity” value [11]?
A: Its value is 87%.

Q: What about the “SGK3 percentage of activity” value [12] of the same compound?
A: Its value is 2%.

Q: What about the “MST3 percentage of activity” value [13] of the same compound?
A: Its value is 0%.

Q: And the “HIPK1 percentage of activity” value [14]?
A: Its value is 90%.

Q: And the “NLK percentage of activity” value [15]?
A: Its value is 3%.

Q: And the “PRKCG percentage of activity” value [16]?
A: The value was 0%.

Q: What about the “CLK3 percentage of activity” value [17] of the same compound?
A: The value was 83%.

Q: And the “GRK6 percentage of activity” value [18]?
A: The value was −2%.

Q: What about the “p38-gamma percentage of activity” value [19] of the same compound?
A: Its value is 12%.

Q: And the “Pyk2 percentage of activity” value [20]?
A: Its value is −3%.

Q: What about the “MRCKA percentage of activity” value [21] of the same compound?
A: Its value is −10%.

Q: What about the “MEK6 percentage of activity” value [22] of the same compound?
A: The value was 6%.

Q: And the “FGFR3 percentage of activity” value [23]?
A: Its value is −2%.

Q: And the “AKT2 percentage of activity” value [24]?
A: The value was −10%.

Q: What about the “cKit(D816V) percentage of activity” value [25] of the same compound?
A: Its value is 2%.

Q: And the “PRKCD percentage of activity” value [26]?
A: The value was 7%.

Q: What about the “PRKCN percentage of activity” value [27] of the same compound?
A: The value was 2%.

Q: And the “NEK11 percentage of activity” value [28]?
A: The value was −2%.

Q: What about the “PAK6 percentage of activity” value [29] of the same compound?
A: Its value is −14%.

Q: What about the “ITK;Itk(h) percentage of activity” value [30] of the same compound?
A: The value was 0%.

Q: And the “NEK6 percentage of activity” value [31]?
A: The value was −3%.

Source: patent publication US8168651B2, “Protein kinase modulators” (Cylene Pharmaceuticals, Inc., priority 2008, dated 2012)
